According to patent publication US20130317067A1, “PESTICIDAL MIXTURES WITH IMPROVED PROPERTIES” (BAYER INTELLECTUAL PROPERTY GMBH, priority 2010, published 2013):

Key:
Type in all cases: in vivo
[1] = test system: cotton aphid (Aphis gossypii); assay: Aphis gossypii test (cotton seed treatment)
Procedure: (§1) The expected efficacy of a given combination of two compounds is calculated as follows (see Colby, S. R., “Calculating Synergistic and antagonistic Responses of Herbicide Combinations”, Weeds 15, pp. 20-22, 1967):
(§2) If • X is the efficacy expressed in % mortality of the untreated control for test compound A at a concentration of m ppm respectively m g/ha, • Y is the efficacy expressed in % mortality of the untreated control for test compound B at a concentration of n ppm respectively n g/ha, • E is the efficacy expressed in % mortality of the untreated control using the mixture of A and B at m and n ppm respectively m and n g/ha, then is
(§3) If the observed insecticidal efficacy of the combination is higher than the one calculated as “E”, then the combination of the two compounds is more than additive, i.e., there is a synergistic effect.
(§4) If not mentioned otherwise, the crystalline modification I of 4-{[(6-chloropyrid-3-yl)methyl](methyl)amino}furan-2(5H)-one has been prepared as a water-dispersible or water-soluble powder in an active ingredient concentration of 70% (wt/wt) involving the following formulation auxiliaries, whereas the amount of auxiliaries sums up to 100 wt. %:
(§5) The auxiliaries were mixed with the appropriate amount of the crystalline modification I of 4-{[(6-chloropyrid-3-yl)methyl](methyl)amino}furan-2(5H)-one. There is no water or solvent added. To enable the dry mixture to stick on the seed, the seed were treated with a minimal amount of water, namely […] for 2 g canola seeds, and 800 μl für 20 g cotton seeds
Cotton seeds were treated with the compounds or mixtures and sown. 10 days after germination the plants were infested with a mixed population of the cotton aphid (Aphis gossypii). After the specified period of time, the mortality in % is determined. 100% means that all the aphids have been killed; 0% means that none of the aphids have been killed.

[2] = test system: green peach aphid (Myzus persicae); assay: Myzus persicae test (oil seed rape seed treatment)
Procedure: as §1, §2, §3, §4, §5
Seeds of Oil seed rape were treated with the compounds or mixtures and sown. Ca. 35 days after germination the plants were infested with a mixed population of the green peach aphid (Myzus persicae). After the specified period of time, the mortality in % is determined. 100% means that all the aphids have been killed; 0% means that none of the aphids have been killed.

[3] = test system: larvae of the mustard beetle (Phaedon cochleariae); assay: Phaedon cochleariae larvae test (oil seed rape seed treatment)
Procedure: as §1, §2, §3, §4, §5
Seeds of Oil seed rape were treated with the compounds or mixtures and sown. Ca. 35 days after germination the plants were infested with a larvae of the mustard beetle (Phaedon cochleariae). After the specified period of time, the mortality in % is determined. 100% means that all the beetle larvae have been killed; 0% means that none of the beetle larvae have been killed.

How did the “Kill rate [in % after 2 days]” value ([1]; 0.01 mg ai/grain) turn out when `CN(Cc1ccc(Cl)nc1)C1=CC(=O)OC1` [4-{[(6-chloropyrid-3-yl)methyl](methyl)amino}furan-2(5H)-one] was run?
The value was 63%.

And the “Kill rate [in % after 1 day]” value ([1]; 0.025 mg ai/grain)?
Its value is 0%.

What about the “Kill rate [in % after 2 days]” value ([1]; 0.025 mg ai/grain) of the same molecule?
Its value is 80%.

What about the “Kill rate [in % after 2 days]” value ([2]; 0.01 mg ai/grain) of the same molecule?
The value was 10%.

And the “Kill rate [in % after 7 days]” value ([2]; 0.01 mg ai/grain)?
The value was 0%.

And the “Kill rate [in % after 3 days]” value ([2]; 0.025 mg ai/grain)?
Its value is 0%.

And the “Kill rate [in % after 4 days]” value ([3]; 0.01 mg ai/grain)?
The value was 0%.

What about the “Kill rate [in % after 5 days]” value ([3]; 0.025 mg ai/grain) of the same molecule?
Its value is 5.56%.

How did the “Kill rate [in % after 3 days]” value ([2]; 0.5 mg ai/grain) turn out when `CSC1=N[C@@](C)(c2ccccc2)C(=O)N1Nc1ccccc1` [Fenamidone] was run?
Its value is 0%.

What about the “Kill rate [in % after 7 days]” value ([2]; 0.5 mg ai/grain) of the same molecule?
The value was 0%.

Which “Kill rate [in % after 2 days]” value ([1]; 0.5 mg ai/grain) does the source give for `CC1(C(=O)Nc2ccc(O)c(Cl)c2Cl)CCCCC1` [Fenhexamid] here?
The value was 0%.

With `N#Cc1c[nH]cc1-c1cccc2c1OC(F)(F)O2` [Fluodioxonil, Fludioxonil] as the molecule, how does the “Kill rate [in % after 4 days]” value ([3]; 05 mg ai/grain (so in the source)) read?
The value was 0%.

For `O=C(NCc1ncc(C(F)(F)F)cc1Cl)c1c(Cl)cccc1Cl` [Fluopicolide], which “Kill rate [in % after 5 days]” value ([3]; 1 mg ai/grain) is on record?
Its value is 0%.

For `CON=C(C(=O)OC)c1ccccc1CON=C(C)c1cccc(C(F)(F)F)c1` [Trifloxystrobin], which “Kill rate [in % after 1 day]” value ([1]; 0.5 mg ai/grain) is on record?
Its value is 0%.

Which “Kill rate [in % after 1 day]” value ([1]; 0.5 mg ai/grain) does the source give for `CCC1(C(=O)N[C@H](C)c2ccc(Cl)cc2)C(C)C1(Cl)Cl` (some centres unmarked) [Carpropamid] here?
Its value is 0%.

With `Cn1cc(C(=O)Nc2ccc(F)cc2-c2ccc(Cl)c(Cl)c2)c(C(F)F)n1` [Bixafen] as the molecule, how does the “Kill rate [in % after 2 days]” value ([1]; 0.5 mg ai/grain) read?
The value was 0%.

Which “Kill rate [in % after 2 days]” value ([2]; 1 mg ai/grain) does the source give for `CCO[PH](=O)O` [Fosetyl-Al] here?
The value was 0%.
